Data as given in patent publication US10730863B2, “Bridged bicyclic compounds as farnesoid X receptor modulators” (BRISTOL-MYERS SQUIBB COMPANY, priority 2017, dated 2020).

What follows are compounds tested against FXR (Homo sapiens (Human), UniProt Q96RI1) (assay: FXR EC50 (FXR agonist activity reported with each example)).
Type: cell-based

Sequence of FXR (Q96RI1 262-486): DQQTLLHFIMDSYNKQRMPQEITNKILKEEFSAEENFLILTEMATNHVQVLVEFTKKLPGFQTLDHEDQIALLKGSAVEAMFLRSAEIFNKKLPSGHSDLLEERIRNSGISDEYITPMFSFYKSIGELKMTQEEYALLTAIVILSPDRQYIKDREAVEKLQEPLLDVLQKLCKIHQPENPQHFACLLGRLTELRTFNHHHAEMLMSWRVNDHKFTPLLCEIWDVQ

EC50 [µM]	SMILES
0.021	COc1c(F)cc(-c2noc(C34CCC(OCc5c(-c6c(Cl)cncc6Cl)noc5C5CC5)(CC3)CC4)n2)cc1C(=O)O [Example 238, 5-(5-(4-((5-cyclopropyl-3-(3,5-dichloropyridin-4-yl)isoxazol-4-yl)methoxy)bicyclo[2.2.2]octan-1-yl)-1,2,4-oxadiazol-3-yl)-3-fluoro-2-methoxybenzoic acid]
0.079	COc1cc(C(=O)O)cc(-c2noc(C34CCC(OCc5c(-c6c(Cl)cncc6Cl)noc5C5CC5)(CC3)CC4)n2)c1 [Example 239, 3-(5-(4-((5-cyclopropyl-3-(3,5-dichloropyridin-4-yl)isoxazol-4-yl)methoxy)bicyclo[2.2.2]octan-1-yl)-1,2,4-oxadiazol-3-yl)-5-methoxybenzoic acid]
0.17	COc1ccc(-c2noc(C34CCC(OCc5c(-c6c(Cl)cncc6Cl)noc5C5CC5)(CC3)CC4)n2)cc1C(N)=O [Example 240, 5-(5-(4-((5-cyclopropyl-3-(3,5-dichloropyridin-4-yl)isoxazol-4-yl)methoxy)bicyclo[2.2.2]octan-1-yl)-1,2,4-oxadiazol-3-yl)-2-methoxybenzamide]
0.13	COc1cc(-c2noc(C34CCC(OCc5c(-c6c(Cl)cncc6Cl)noc5C5CC5)(CC3)CC4)n2)cc(C(=O)O)c1F [Example 241, 5-(5-(4-((5-cyclopropyl-3-(3,5-dichloropyridin-4-yl)isoxazol-4-yl)methoxy)bicyclo[2.2.2]octan-1-yl)-1,2,4-oxadiazol-3-yl)-2-fluoro-3-methoxybenzoic acid]
1.4	Oc1ccc(-c2noc(C34CCC(OCc5c(-c6c(Cl)cncc6Cl)noc5C5CC5)(CC3)CC4)n2)cc1-c1nnn[nH]1 [Example 242, 4-(5-(4-((5-cyclopropyl-3-(3,5-dichloropyridin-4-yl)isoxazol-4-yl)methoxy)bicyclo[2.2.2]octan-1-yl)-1,2,4-oxadiazol-3-yl)-2-(1H-tetrazol-5-yl)phenol]
0.12	COc1cc(-c2noc(C34CCC(OCc5c(-c6c(Cl)cncc6Cl)noc5C5CC5)(CC3)CC4)n2)cc(C(=O)O)c1OC [Example 243, 5-(5-(4-((5-cyclopropyl-3-(3,5-dichloropyridin-4-yl)isoxazol-4-yl)methoxy)bicyclo[2.2.2]octan-1-yl)-1,2,4-oxadiazol-3-yl)-2,3-dimethoxybenzoic acid]
0.23	COc1cc(C(=O)O)c(F)c(-c2noc(C34CCC(OCc5c(-c6c(Cl)cncc6Cl)noc5C5CC5)(CC3)CC4)n2)c1 [Example 244, 3-(5-(4-((5-cyclopropyl-3-(3,5-dichloropyridin-4-yl)isoxazol-4-yl)methoxy)bicyclo[2.2.2]octan-1-yl)-1,2,4-oxadiazol-3-yl)-2-fluoro-5-methoxybenzoic acid]
0.046	COc1c(C(=O)O)cc(F)cc1-c1noc(C23CCC(OCc4c(-c5c(Cl)cncc5Cl)noc4C4CC4)(CC2)CC3)n1 [Example 245, 3-(5-(4-((5-cyclopropyl-3-(3,5-dichloropyridin-4-yl)isoxazol-4-yl)methoxy)bicyclo[2.2.2]octan-1-yl)-1,2,4-oxadiazol-3-yl)-5-fluoro-2-methoxybenzoic acid]
0.09	COc1cc(C(=O)O)c(OC)c(-c2noc(C34CCC(OCc5c(-c6c(Cl)cncc6Cl)noc5C5CC5)(CC3)CC4)n2)c1 [Example 246, 3-(5-(4-((5-cyclopropyl-3-(3,5-dichloropyridin-4-yl)isoxazol-4-yl)methoxy)bicyclo[2.2.2]octan-1-yl)-1,2,4-oxadiazol-3-yl)-2,5-dimethoxybenzoic acid]
0.24	O=C(O)c1cc(-c2noc(C34CCC(OCc5c(-c6c(Cl)cncc6Cl)noc5C5CC5)(CC3)CC4)n2)ccn1 [Example 249, 4-(5-(4-((5-cyclopropyl-3-(3,5-dichloropyridin-4-yl)isoxazol-4-yl)methoxy)bicyclo[2.2.2]octan-1-yl)-1,2,4-oxadiazol-3-yl)picolinic acid]
0.73	COc1ccc(-c2noc(C34CCC(OCc5c(-c6c(Cl)cncc6Cl)noc5C5CC5)(CC3)CC4)n2)c(F)c1C(=O)O [Example 250, 3-(5-(4-((5-cyclopropyl-3-(3,5-dichloropyridin-4-yl)isoxazol-4-yl)methoxy)bicyclo[2.2.2]octan-1-yl)-1,2,4-oxadiazol-3-yl)-2-fluoro-6-methoxybenzoic acid]
0.016	CC(C)Oc1cc(C(=O)O)cc(-c2noc(C34CCC(OCc5c(-c6c(Cl)cncc6Cl)noc5C5CC5)(CC3)CC4)n2)c1 [Example 251, 3-(5-(4-((5-cyclopropyl-3-(3,5-dichloropyridin-4-yl)isoxazol-4-yl)methoxy)bicyclo[2.2.2]octan-1-yl)-1,2,4-oxadiazol-3-yl)-5-isopropoxybenzoic acid]
0.086	COc1ccc(-c2nc(C34CCC(OCc5c(-c6c(Cl)cncc6Cl)noc5C5CC5)(CC3)CC4)co2)cc1C(=O)O [Example 252, 5-(4-(4-((5-cyclopropyl-3-(3,5-dichloropyridin-4-yl)isoxazol-4-yl)methoxy)bicyclo[2.2.2]octan-1-yl)oxazol-2-yl)-2-methoxybenzoic acid]
0.74	COc1ccc(-c2noc(C34CCC(OCc5c(-c6c(Cl)cncc6Cl)noc5C5CC5)(CC3)CC4)n2)nc1C(=O)O [Example 253, 6-(5-(4-((5-cyclopropyl-3-(3,5-dichloropyridin-4-yl)isoxazol-4-yl)methoxy)bicyclo[2.2.2]octan-1-yl)-1,2,4-oxadiazol-3-yl)-3-methoxypicolinic acid]
2	O=C(O)c1cc(-c2noc(C34CCC(OCc5c(-c6c(Cl)cncc6Cl)noc5C5CC5)(CC3)CC4)n2)ccc1C(F)(F)F [Example 254, 5-(5-(4-((5-cyclopropyl-3-(3,5-dichloropyridin-4-yl)isoxazol-4-yl)methoxy)bicyclo[2.2.2]octan-1-yl)-1,2,4-oxadiazol-3-yl)-2-(trifluoromethyl)benzoic acid]
0.018	COc1ccc(-c2nc(C34CCC(OCc5c(-c6c(Cl)cncc6Cl)noc5C5CC5)(CC3)CC4)cs2)cc1C(=O)O [Example 255, 5-(4-(4-((5-cyclopropyl-3-(3,5-dichloropyridin-4-yl)isoxazol-4-yl)methoxy)bicyclo[2.2.2]octan-1-yl)thiazol-2-yl)-2-methoxybenzoic acid]
0.26	CC(C)Oc1ccc(-c2noc(C34CCC(OCc5c(-c6c(Cl)cncc6Cl)noc5C5CC5)(CC3)CC4)n2)cc1C(=O)O [Example 256, 5-(5-(4-((5-cyclopropyl-3-(3,5-dichloropyridin-4-yl)isoxazol-4-yl)methoxy)bicyclo[2.2.2]octan-1-yl)-1,2,4-oxadiazol-3-yl)-2-isopropoxybenzoic acid]
0.008	CC(C)Oc1cc(-c2noc(C34CCC(OCc5c(-c6c(Cl)cncc6Cl)noc5C5CC5)(CC3)CC4)n2)cc(C(=O)O)n1 [Example 258, 4-(5-(4-((5-cyclopropyl-3-(3,5-dichloropyridin-4-yl)isoxazol-4-yl)methoxy)bicyclo[2.2.2]octan-1-yl)-1,2,4-oxadiazol-3-yl)-6-isopropoxypicolinic acid]
5.5	COc1ccc(-c2nc(C34CCC(OCc5c(-c6c(Cl)cncc6Cl)noc5C5CC5)(CC3)CC4)c[nH]2)cc1C(=O)O [Example 259, 5-(4-(4-((5-cyclopropyl-3-(3,5-dichloropyridin-4-yl)isoxazol-4-yl)methoxy)bicyclo[2.2.2]octan-1-yl)-1H-imidazol-2-yl)-2-methoxybenzoic acid]
0.053	CN(C)c1cc(-c2noc(C34CCC(OCc5c(-c6c(Cl)cncc6Cl)noc5C5CC5)(CC3)CC4)n2)cc(C(=O)O)n1 [Example 262, 4-(5-(4-((5-cyclopropyl-3-(3,5-dichloropyridin-4-yl)isoxazol-4-yl)methoxy)bicyclo[2.2.2]octan-1-yl)-1,2,4-oxadiazol-3-yl)-6-(dimethylamino)picolinic acid]

SMILES	EC50 [µM]
COc1c(C(=O)O)cccc1-c1noc(C23CCC(OCc4c(-c5c(Cl)cncc5Cl)noc4C4CC4)(CC2)CC3)n1 [Example 237, 3-(5-(4-((5-cyclopropyl-3-(3,5-dichloropyridin-4-yl)isoxazol-4-yl)methoxy)bicyclo[2.2.2]octan-1-yl)-1,2,4-oxadiazol-3-yl)-2-methoxybenzoic acid]	0.027
O=C(O)c1cccc(-c2noc(C34CCC(OCc5c(-c6c(Cl)cncc6Cl)noc5C5CC5)(CC3)CC4)n2)n1 [Example 247, 6-(5-(4-((5-cyclopropyl-3-(3,5-dichloropyridin-4-yl)isoxazol-4-yl)methoxy)bicyclo[2.2.2]octan-1-yl)-1,2,4-oxadiazol-3-yl)picolinic acid]	0.58
O=C(O)c1c(F)ccc(-c2noc(C34CCC(OCc5c(-c6c(Cl)cncc6Cl)noc5C5CC5)(CC3)CC4)n2)c1F [Example 248, 3-(5-(4-((5-cyclopropyl-3-(3,5-dichloropyridin-4-yl)isoxazol-4-yl)methoxy)bicyclo[2.2.2]octan-1-yl)-1,2,4-oxadiazol-3-yl)-2,6-difluorobenzoic acid]	1.1
COc1cc(-c2noc(C34CCC(OCc5c(-c6c(Cl)cncc6Cl)noc5C5CC5)(CC3)CC4)n2)cc(C(=O)O)n1 [Example 257, 4-(5-(4-((5-cyclopropyl-3-(3,5-dichloropyridin-4-yl)isoxazol-4-yl)methoxy)bicyclo[2.2.2]octan-1-yl)-1,2,4-oxadiazol-3-yl)-6-methoxypicolinic acid]	0.079
O=C(O)c1cc(-c2noc(C34CCC(OCc5c(-c6c(Cl)cncc6Cl)noc5C5CC5)(CC3)CC4)n2)cc(OC2CC2)n1 [Example 260, 6-cyclopropoxy-4-(5-(4-((5-cyclopropyl-3-(3,5-dichloropyridin-4-yl)isoxazol-4-yl)methoxy)bicyclo[2.2.2]octan-1-yl)-1,2,4-oxadiazol-3-yl)picolinic acid]	0.039
O=C(O)c1cc(-c2noc(C34CCC(OCc5c(-c6c(Cl)cncc6Cl)noc5C5CC5)(CC3)CC4)n2)cc(OC2CCC2)n1 [Example 261, 6-cyclobutoxy-4-(5-(4-((5-cyclopropyl-3-(3,5-dichloropyridin-4-yl)isoxazol-4-yl)methoxy)bicyclo[2.2.2]octan-1-yl)-1,2,4-oxadiazol-3-yl)picolinic acid]	0.036
